Assay results taken from patent publication US6713517B1, “Use of aryl N-substituted carboxamides directly and as radio-and chemosensitizers for killing tumor and cancer cells and novel compounds for such use” (OXiGENE, Inc., priority 1996, dated 2004).
“Also recorded” adds a separate entry of the source.

Experiments:
[1] = Solubility in water of the hydrochloride salt; assay type: physicochemical; details: amorphous hydrochloride salt
Protocol: Preparation of the hydrochloride salt of N-(2-diethylamino-ethyl)nicotinamide. The free base [compound (3)] was dissolved in n-propanol+n-butanol+0.1 M HClaq (2:1:1, v/v/v). An aliquate of 2 M aqueous […] was added to adjust the pH to 2. The solution was concentrated and the resulting amorphous material was dried under vacuum overnight.

[2] = test system: human lymphocytes (purified mononuclear leukocytes); assay type: cell-based; details: for radiosensitization of cytotoxicity by apoptosis: 1 Gy radiation plus drug (100 μM MCA or 1000 μM others), FIG. 6B; for induction of / effect on apoptotic cytotoxicity: drug alone (FIG. 6A) or with 1 Gy radiation (FIG. 6B)
Protocol: Evaluation of radiosensitization by apoptotic cytotoxicity. […] The cells were first exposed to the drugs for 30 minutes at 37° C. before being given 1 Gy irradiation (^137cesium source, Scanditronix, 1.56 Gy/min). The apoptotic and necrotic cells were analyzed and scored by phase contrast morphological criteria. Apoptotic cells have condensed chromatin and are trypan blue negative whereas necrotic cells stain blue with trypan blue.

solubility in water [1] | SMILES | radiosensitization of cytotoxicity by apoptosis [2] | induction of / effect on apoptotic cytotoxicity [2]
readily soluble in water | CCN(CC)CCNC(=O)c1cccnc1.Cl [N-(2-diethylaminoethyl) nicotinamide HCl] |  | 
 | CCN(CC)CCNC(=O)c1cc(Cl)c(N)cc1OC [metoclopramide, 4-amino-5-chloro-N-(2-diethylamino-ethyl)-2-methoxybenzamide] | having the properties to sensitize apoptotic cell killing by radiation; also recorded: effective | capable of inducing apoptotic cytotoxicity
 | NC(=O)c1cccnc1 [nicotinamide] | not and does not sensitize cytotoxicity by apoptosis | not able to affect cytotoxicity by apoptosis
